From US8466162B2, “5-alkynyl-pyridines” (Boehringer Ingelheim International GmbH, priority 2011, dated 2013)

How the values were obtained:
PI3Kalpha = target: T1, PI3Kalpha (Homo sapiens, UniProt P42336); test: Inhibition of PI3Kalpha-induced PIP-2 phosphorylation (filter-binding assay, 33P-ATP); type: biochemical; settings: PI3 Kinase alpha (p85alpha/His-p110alpha), 1 μM ATP; read-out: IC50 PI3Kα
T1 construct: His (N); made in house; host or cells: SF9 insect cells (baculovirus co-infection)
Method: Biological Methods Inhibition of PI3Kalpha-Induced PIP-2 Phosphorylation
See also J. A. Engelman, Nature Reviews Cancer, 2009, 9, 550-562; A. Carnero, Expert Opin. Investig. Drugs, 2009, 18, 1265-1277 and P. Liu et al., Nature Reviews Drug Discovery, 2009, 8, 627-64.
Method Type: Filter-Binding-Assay
Aliquoted in desired amounts and stored at −80° C. […] Assay Procedure
The substrate-containing lipid vesicles are dissolved to a concentration of 0.637 mg lipid blend/ml assay buffer (with BSA, freshly added) in 50 ml Falcon ->keep on ice, followed by ultrasonication (pulse of 15 sec followed by a pause of 10 sec, 4×). Compounds are serially diluted in assay buffer+6% DMSO and 10 μl of each dilution is added per well of a 96-well plate (compounds are tested in duplicates) and mixed with 30 μl of the lipid vesicles containing PDGFR-Peptide (0.5 μM final) and PI3K alpha (25 ng/well final). The mixture is then incubated for 20 minutes at room temperature.
Subsequently, 20 μl of assay buffer containing 3 μM cold ATP and 0.5 μCi/20 μl 33P-ATP are added. The plates are then incubated at room temperature for 120 minutes (shaking with 300 rpm).
The reaction mix is transferred onto filter plates using “filtermate harvester” from Packard: filter plates are rinsed with PBS, then the reaction mix is filtered onto the filter plate, washed 5 times with PBS and are allowed to dry for 30-60 minutes at 50° C. The plate bottom is sealed with Perkin Elmer white adhesive foil and 25 μl/well Microscint0 are added, the top is covered with transparent adhesive foil and the plate is measured with Wallac Trilux 1450 Microbeta Counter.
As positive control serve wells containing vehicle controls (1% DMSO in assay buffer), showing non-inhibited kinase activity (high values). Wells containing assay buffer instead of enzyme can serve as control for background activity (low values).
Calculate IC50 values using the Smiley program (based on GrapPad Prism)

H460 cells = test: alamarBlue H460 cell assay (antiproliferative/cytotoxicity); type: cell-based; settings: NCI-H460; H460 human lung carcinoma cells
Excerpt: (§1) The H460, MB453, U87, MCF7 and BT474 alamarBlue cell assays provide EC50 values indicative of the antiproliferative or cytotoxic effects of the compounds to respectively the H460 (human non small cell line cancer), MB-453 (breast cancer cell line), U87 (glioblastoma cell line), MCF7 (breast cancer cell line) and BT474 (breast cancer cell line). As known in the field, antiproliferative or cytotoxic effect against this cell lines would be expected to be indicative of activity in treating lung, breast and brain cancers. See R. Marone R et al. Biochim. Biophys. Acta. 2008 January; 1784(1):159-85. S. Yaguchi et al., J. Natl. Cancer Inst. 2006 Apr. 19; 98(8):545-56.
(§2) Method Type: Antiproliferative/Cytotoxicity
(§3) alamarBlue® is designed to provide a rapid and sensitive measure of cell proliferation and cytotoxicity in various human and animal cell lines. The assay is based on the reduction of alamarBlue in the reducing environment of living (metabolically active) cells. In the presence of added cytotoxic or antiproliferative compounds, the innate metabolic activity ceases.
(§4) AlamarBlue is soluble and stable in culture medium. Measurements are made fluorometrically by exciting at 530-560 nm and measuring emission at 590 nm. In reporting percent alamarBlue reduction by monitoring fluorescence, data are expressed as fluorescence emission intensity units as a function of time of incubation.
(§5) 3. Equipment • 96-well plates, flat bottom (Falcon, Cat. No.: 353072) • 96-well plates, U-shaped (Costar, Cat. No.: 3799) • CO2-Incubator • Microplate Reader, Spectramax Plus, Molecular Devices 4. Typical Procedure • Day 0: Seed 3000 BT-474 cells (IMDM/5% FCS, 1% NEAA, 1% Sodiumpyruvat) in 150 μl medium into a 96-well plate, flat bottom (include mediumblank). Incubate plates at 37° C. in a CO2 incubator overnight. • Day 1: Dilute compounds to a concentration 40 μM ->1:3 in medium, 10 dilution steps, in 96-well plates. • Add 50 μl per well of each dilution (total volume per well 200 μl; final conc. of cpds: 10 μM ->1:3). If required, test further dilutions. • All concentrations are tested in duplicates. • Controls: Cells w/o cpd. (+50 μl medium/DMSO). • Cells are incubated with compounds for 5-6 days. • Day 6 or 7: Add 25 μl of alamarBlue solution to each well and incubate for 8 hours at 37° C. Measure fluorescence by exciting at 530-560 nm and measuring emission at 590 nm 5. Evaluation • Subtract average value for medium blank from sample readings • Calculate EC50 using GraphPad Prism (Fifty)

BT474 cells = test: alamarBlue BT474 cell assay (antiproliferative/cytotoxicity); type: cell-based; settings: BT-474 human breast cancer cell line, 5-6 days incubation
Excerpt: as §1, §2, §3, §4, §5

MCF7 cells = test: alamarBlue MCF7 cell assay (antiproliferative/cytotoxicity); type: cell-based; settings: MCF7 human breast cancer cell line
Excerpt: as §1, §2, §3, §4, §5

T1 sequence (P27986 whole entry): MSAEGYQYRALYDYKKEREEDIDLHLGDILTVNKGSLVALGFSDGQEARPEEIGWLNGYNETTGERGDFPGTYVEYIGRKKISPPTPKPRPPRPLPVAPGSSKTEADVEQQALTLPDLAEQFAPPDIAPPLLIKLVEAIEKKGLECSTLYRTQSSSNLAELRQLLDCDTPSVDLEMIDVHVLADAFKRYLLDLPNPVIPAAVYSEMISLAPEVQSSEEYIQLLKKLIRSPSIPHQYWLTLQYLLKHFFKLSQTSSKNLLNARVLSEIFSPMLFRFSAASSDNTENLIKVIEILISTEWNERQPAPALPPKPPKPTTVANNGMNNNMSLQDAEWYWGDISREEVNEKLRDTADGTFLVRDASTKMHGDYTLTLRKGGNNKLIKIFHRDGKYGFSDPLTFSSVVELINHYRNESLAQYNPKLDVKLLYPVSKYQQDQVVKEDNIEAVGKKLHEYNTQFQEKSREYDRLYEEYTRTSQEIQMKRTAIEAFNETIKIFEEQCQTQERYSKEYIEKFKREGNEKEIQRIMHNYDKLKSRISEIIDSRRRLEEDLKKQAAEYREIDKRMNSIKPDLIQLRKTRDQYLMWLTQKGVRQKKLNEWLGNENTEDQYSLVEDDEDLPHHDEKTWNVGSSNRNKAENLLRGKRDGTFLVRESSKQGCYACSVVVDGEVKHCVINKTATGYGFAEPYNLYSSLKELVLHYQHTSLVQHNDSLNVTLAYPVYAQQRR
T1 sequence (P42336 whole entry): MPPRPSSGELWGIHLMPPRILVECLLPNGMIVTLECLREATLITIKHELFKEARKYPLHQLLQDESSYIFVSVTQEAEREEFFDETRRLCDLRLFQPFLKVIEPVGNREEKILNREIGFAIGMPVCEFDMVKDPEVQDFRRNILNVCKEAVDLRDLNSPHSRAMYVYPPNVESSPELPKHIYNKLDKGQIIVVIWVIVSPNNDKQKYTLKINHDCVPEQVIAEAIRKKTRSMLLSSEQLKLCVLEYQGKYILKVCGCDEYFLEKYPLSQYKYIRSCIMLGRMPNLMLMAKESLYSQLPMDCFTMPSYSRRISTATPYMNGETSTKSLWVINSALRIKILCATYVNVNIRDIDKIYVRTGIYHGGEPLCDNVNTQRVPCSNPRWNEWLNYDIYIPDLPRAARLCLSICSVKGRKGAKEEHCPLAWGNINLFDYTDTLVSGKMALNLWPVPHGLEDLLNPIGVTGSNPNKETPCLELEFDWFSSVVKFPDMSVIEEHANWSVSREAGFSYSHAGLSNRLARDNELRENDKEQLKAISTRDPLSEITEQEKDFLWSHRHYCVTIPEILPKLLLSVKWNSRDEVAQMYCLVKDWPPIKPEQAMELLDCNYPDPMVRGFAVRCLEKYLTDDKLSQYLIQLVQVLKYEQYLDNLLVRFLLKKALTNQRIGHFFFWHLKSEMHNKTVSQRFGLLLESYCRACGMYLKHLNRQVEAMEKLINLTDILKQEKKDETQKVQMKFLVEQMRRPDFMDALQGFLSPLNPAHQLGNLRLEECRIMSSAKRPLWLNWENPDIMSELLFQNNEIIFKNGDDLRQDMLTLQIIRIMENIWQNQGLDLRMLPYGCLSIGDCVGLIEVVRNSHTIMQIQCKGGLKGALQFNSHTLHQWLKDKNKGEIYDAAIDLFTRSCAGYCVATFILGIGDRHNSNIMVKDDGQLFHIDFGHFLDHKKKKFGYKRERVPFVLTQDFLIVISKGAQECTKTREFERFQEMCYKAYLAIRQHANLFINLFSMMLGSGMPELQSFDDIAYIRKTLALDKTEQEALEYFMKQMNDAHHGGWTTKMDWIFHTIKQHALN

Structure (SMILES) | IC50 (PI3Kalpha) [nM] | EC50 (H460 cells) [nM] | EC50 (BT474 cells) [nM] | EC50 (MCF7 cells) [nM]
CCc1ncnc(-c2ccnc(C)c2)c1C#Cc1cnc(C)c(NS(=O)(=O)c2ccc(F)cc2Cl)c1 [Example 90, 2-Chloro-N-{5-[4-ethyl-6-(2-methyl-pyridin-4-yl)-pyrimidin-5-ylethynyl]-2-methyl-pyridin-3-yl}-4-fluoro-benzenesulfonamide] | 2 |  |  | 
CNC(=O)c1ccc(-c2nc(N)nc(C)c2C#Cc2cnc(C)c(NS(C)(=O)=O)c2)cc1Cl [Example 25, 4-[2-Amino-5-(5-methanesulfonylamino-6-methyl-pyridin-3-ylethynyl)-6-methyl-pyrimidin-4-yl]-2-chloro-N-methyl-benzamide] | 3 | 376 | 231 | 122
CCc1ncnc(-c2ccccc2C)c1C#Cc1cnc(C)c(NS(C)(=O)=O)c1 [Example 60, N-[5-(4-Ethyl-6-o-tolyl-pyrimidin-5-ylethynyl)-2-methyl-pyridin-3-yl}-methanesulfonamide] | 37 |  |  | 
CCc1ncnc(-c2cc(CN)ccc2F)c1C#Cc1cnc(C)c(NS(C)(=O)=O)c1 [Example 77, N-{5-[4-(5-Aminomethyl-2-fluoro-phenyl)-6-ethyl-pyrimidin-5-ylethynyl]-2-methyl-pyridin-3-yl}-methanesulfonamide] | 150 |  |  | 
CCc1nc(N)nc(-c2ccccc2)c1C#Cc1cnc(C)c(NS(C)(=O)=O)c1 [Example 17, N-[5-(2-Amino-4-ethyl-6-phenyl-pyrimidin-5-ylethynyl)-2-methyl-pyridin-3-yl]-methanesulfonamide] | 2 | 172 |  | 
CCc1nc(N)nc(-c2cccc(F)c2)c1C#Cc1cnc(C)c(NS(C)(=O)=O)c1 [Example 16, N-{5-[2-Amino-4-ethyl-6-(3-fluoro-phenyl)-pyrimidin-5-ylethynyl]-2-methyl-pyridin-3-yl}-methanesulfonamide] | 2 | 337 |  | 
CCc1nc(N)nc(-c2ccc(C(=O)N3CCN(C)CC3)c(F)c2)c1C#Cc1cnc(C)c(NS(C)(=O)=O)c1 [Example 82, N-(5-{2-Amino-4-ethyl-6-[3-fluoro-4-(4-methyl-piperazine-1-carbonyl)-phenyl]-pyrimidin-5-ylethynyl}-2-methyl-pyridin-3-yl)-methanesulfonamide] | 1 | 2270 | 511 | 194
CCS(=O)(=O)Nc1cc(C#Cc2c(C)nc(N)nc2-c2ccnc(C)c2)cnc1C [Example 20, Ethanesulfonic acid {5-[2-amino-4-methyl-6-(2-methyl-pyridin-4-yl)-pyrimidin-5-ylethynyl]-2-methyl-pyridin-3-yl}-amide] | 14 | 1820 |  | 
CCc1nc(N)nc(-c2cccc(CN(C)C)c2)c1C#Cc1cnc(C)c(NS(C)(=O)=O)c1 [Example 19, N-{5-[2-Amino-4-(3-dimethylaminomethyl-phenyl)-6-ethyl-pyrimidin-5-ylethynyl]-2-methyl-pyridin-3-yl}-methanesulfonamide] | 6 |  | 806 | 313
CCc1ncnc(-c2ccc(OC)c(OC)c2OC)c1C#Cc1cnc(C)c(NS(C)(=O)=O)c1 [Example 80, N-{5-[4-Ethyl-6-(2,3,4-trimethoxy-phenyl)-pyrimidin-5-ylethynyl]-2-methyl-pyridin-3-yl}-methanesulfonamide] | 43 |  |  | 
CCc1ncnc(-c2cc(C(F)(F)F)ccc2OC)c1C#Cc1cnc(C)c(NS(C)(=O)=O)c1 [Example 68, N-{5-[4-Ethyl-6-(2-methoxy-5-trifluoromethyl-phenyl)-pyrimidin-5-ylethynyl]-2-methyl-pyridin-3-yl}-methanesulfonamide] | 136 |  |  | 
CCc1nc(N)nc(-c2ccc(C)nc2)c1C#Cc1cnc(C)c(NS(C)(=O)=O)c1 [Example 14, N-{5-[2-Amino-4-ethyl-6-(6-methyl-pyridin-3-yl)-pyrimidin-5-ylethynyl]-2-methyl-pyridin-3-yl}-methanesulfonamide] | 1 | 305 | 89 | 16
CCc1ncnc(-c2c(C)cccc2C)c1C#Cc1cnc(C)c(NS(C)(=O)=O)c1 [Example 58, N-{5-[4-(2,6-Dimethyl-phenyl)-6-ethyl-pyrimidin-5-ylethynyl]-2-methyl-pyridin-3-yl}-methanesulfonamide] | 380 |  |  | 
CCc1ncnc(-c2ccc(OC)c(OC)c2C)c1C#Cc1cnc(C)c(NS(C)(=O)=O)c1 [Example 24, N-{5-[4-(3,4-Dimethoxy-2-methyl-phenyl)-6-ethyl-pyrimidin-5-ylethynyl]-2-methyl-pyridin-3-yl}-methanesulfonamide] | 28 |  |  | 
CCc1ncnc(-c2cccc(CN)c2F)c1C#Cc1cnc(C)c(NS(C)(=O)=O)c1 [Example 79, N-{5-[4-(3-Aminomethyl-2-fluoro-phenyl)-6-ethyl-pyrimidin-5-ylethynyl]-2-methyl-pyridin-3-yl}-methanesulfonamide] | 44 |  |  | 
CCc1nc(N)nc(-c2ccc(CN3CCOCC3)cc2)c1C#Cc1cnc(C)c(NS(C)(=O)=O)c1 [Example 18, N-{5-[2-Amino-4-ethyl-6-(4-morpholin-4-ylmethyl-phenyl)-pyrimidin-5-ylethynyl]-2-methyl-pyridin-3-yl}-methanesulfonamide] | 2 |  | 260 | 118
CCc1nc(N)nc(-c2cccc(CN(C)C)c2)c1C#Cc1cnc(C)c(NS(=O)(=O)c2ccc(F)cc2F)c1 [Example 35, N-{5-[2-Amino-4-(3-dimethylaminomethyl-phenyl)-6-ethyl-pyrimidin-5-ylethynyl]-2-methyl-pyridin-3-yl}-2,4-difluoro-benzenesulfonamide] | 2 |  |  | 
CCc1ncnc(-c2cc(C#N)ccc2F)c1C#Cc1cnc(C)c(NS(C)(=O)=O)c1 [Example 66, N-{5-[4-(5-Cyano-2-fluoro-phenyl)-6-ethyl-pyrimidin-5-ylethynyl]-2-methyl-pyridin-3-yl}-methanesulfonamide] | 34 |  |  | 
CCc1ncnc(-c2ccnc(C)c2)c1C#Cc1cnc(C)c(NS(=O)(=O)c2ccc(Br)cc2C)c1 [Example 97, 4-Bromo-N-{5-[4-ethyl-6-(2-methyl-pyridin-4-yl)-pyrimidin-5-ylethynyl]-2-methyl-pyridin-3-yl}-2-methyl-benzenesulfonamide] | 12 |  | 1530 | 
CCc1ncnc(-c2cc(C(F)(F)F)ccc2F)c1C#Cc1cnc(C)c(NS(C)(=O)=O)c1 [Example 67, N-{5-[4-Ethyl-6-(2-fluoro-5-trifluoromethyl-phenyl)-pyrimidin-5-ylethynyl]-2-methyl-pyridin-3-yl}-methanesulfonamide] | 46 |  |  | 
CCc1nc(N)nc(-c2cccnc2)c1C#Cc1cnc(C)c(NS(C)(=O)=O)c1 [Example 12, N-[5-(2-Amino-4-ethyl-6-pyridin-3-yl-pyrimidin-5-ylethynyl)-2-methyl-pyridin-3-yl]-methanesulfonamide] | 2 | 1240 |  | 
